The values that follow come from US20230008368A1, “IMIDAZOQUINOLINE SUBSTITUTED PHOSPHORIC ESTER AGONIST, AND PREPARATION THEREFOR AND APPLICATION THEREOF” (SUZHOU ZELGEN BIOPHARMACEUTICALS CO., LTD., priority 2019, published 2023).

Some results are limits rather than exact numbers.

One data set concerns the target T1, hTLR8 (Homo sapiens, UniProt Q9NR97).
T1 construct: expressed in transfected cells; host or cells: HEK-Blue hTLR cells
T1 sequence (Q9NR97 27-1041): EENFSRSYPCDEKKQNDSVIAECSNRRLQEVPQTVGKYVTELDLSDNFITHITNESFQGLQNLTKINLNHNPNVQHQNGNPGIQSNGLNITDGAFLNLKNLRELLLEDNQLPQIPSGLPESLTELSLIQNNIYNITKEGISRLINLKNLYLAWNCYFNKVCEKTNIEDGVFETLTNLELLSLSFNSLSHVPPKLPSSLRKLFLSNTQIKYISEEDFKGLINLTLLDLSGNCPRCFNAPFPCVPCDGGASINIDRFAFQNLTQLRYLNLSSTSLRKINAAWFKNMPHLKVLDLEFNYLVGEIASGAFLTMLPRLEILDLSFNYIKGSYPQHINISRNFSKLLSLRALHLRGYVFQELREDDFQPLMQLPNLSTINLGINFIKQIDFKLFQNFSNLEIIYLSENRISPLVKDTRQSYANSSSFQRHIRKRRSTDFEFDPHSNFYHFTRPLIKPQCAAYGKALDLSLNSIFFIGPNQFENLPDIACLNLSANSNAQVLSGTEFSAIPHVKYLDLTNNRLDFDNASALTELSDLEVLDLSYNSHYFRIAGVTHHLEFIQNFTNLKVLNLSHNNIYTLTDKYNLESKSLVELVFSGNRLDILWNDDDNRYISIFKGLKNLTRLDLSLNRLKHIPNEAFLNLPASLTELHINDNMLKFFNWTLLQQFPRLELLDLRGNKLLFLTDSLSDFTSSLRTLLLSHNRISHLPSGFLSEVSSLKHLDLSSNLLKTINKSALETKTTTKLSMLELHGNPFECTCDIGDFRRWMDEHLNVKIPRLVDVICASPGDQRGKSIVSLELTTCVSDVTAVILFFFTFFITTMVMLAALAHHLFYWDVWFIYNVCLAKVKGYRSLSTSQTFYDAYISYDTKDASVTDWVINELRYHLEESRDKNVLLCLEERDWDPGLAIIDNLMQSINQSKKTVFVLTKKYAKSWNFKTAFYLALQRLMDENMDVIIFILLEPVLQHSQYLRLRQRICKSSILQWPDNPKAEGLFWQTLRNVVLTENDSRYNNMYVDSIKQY
Nature of the data set: agonistic activity on hTLR8, HEK-Blue hTLR cells, SEAP reporter (QUANTI-Blue). It is filed as cell-based. The note with it: for EC50: HEK-Blue hTLR cells, SEAP reporter, OD650, cultured 1 day, read-out: TLR 8 EC50; for TLR 8 selectivity TLR 7/TLR 8: ratio of TLR 7 EC50 to TLR 8 EC50. Here is the method: (§1) Experiments on the agonistic activity of TLR7 and TLR8 by the compounds in vitro
(§2) The compound was diluted with 1:3 series with DMSO for 9 concentration points, duplicated wells, and added to 96-well plate with Echo.
(§3) The HEK-Blue™ hTLR cells were suspended in the culture medium and then seeded into a 96-well plate containing the compound at a density of 50,000 cells/well. Cells were cultured at 5% CO2 and 37° C. for 1 day. The final concentration of DMSO in the cell culture medium was 0.5%.
(§4) 20 uL cell culture supernatant was taken, according to the QUANTI-Blue instructions, the reporter gene SEAP in the supernatant was detected, and the OD650 signal value was read with a microplate reader to calculate the agonist activity of the compound on the hTLR7 and hTLR8.
(§5) The EC50 and CC50 values of the compound were calculated by GraphPad Prism software, and the fitting curve was plotted.

In another data set the test system is HEK-Blue™ hTLR cells. The data set is described as follows: cytotoxicity, cell viability by CellTiter-Glo. Type of data set: cell-based, human. The note with it: cultured 1 day. Here is the method:
as §2, §3
(§6) According to the CellTiter-Glo instructions, the cell viability was measured, and the Luminescence signal value was read by the microplate reader, which was used to calculate the cytotoxicity of the compound.
as §5

Another data set concerns the target T2, hTLR7 (Homo sapiens, UniProt Q9NYK1).
T2 construct: expressed in transfected cells; host or cells: HEK-Blue hTLR cells
T2 sequence (Q9NYK1 27-1049): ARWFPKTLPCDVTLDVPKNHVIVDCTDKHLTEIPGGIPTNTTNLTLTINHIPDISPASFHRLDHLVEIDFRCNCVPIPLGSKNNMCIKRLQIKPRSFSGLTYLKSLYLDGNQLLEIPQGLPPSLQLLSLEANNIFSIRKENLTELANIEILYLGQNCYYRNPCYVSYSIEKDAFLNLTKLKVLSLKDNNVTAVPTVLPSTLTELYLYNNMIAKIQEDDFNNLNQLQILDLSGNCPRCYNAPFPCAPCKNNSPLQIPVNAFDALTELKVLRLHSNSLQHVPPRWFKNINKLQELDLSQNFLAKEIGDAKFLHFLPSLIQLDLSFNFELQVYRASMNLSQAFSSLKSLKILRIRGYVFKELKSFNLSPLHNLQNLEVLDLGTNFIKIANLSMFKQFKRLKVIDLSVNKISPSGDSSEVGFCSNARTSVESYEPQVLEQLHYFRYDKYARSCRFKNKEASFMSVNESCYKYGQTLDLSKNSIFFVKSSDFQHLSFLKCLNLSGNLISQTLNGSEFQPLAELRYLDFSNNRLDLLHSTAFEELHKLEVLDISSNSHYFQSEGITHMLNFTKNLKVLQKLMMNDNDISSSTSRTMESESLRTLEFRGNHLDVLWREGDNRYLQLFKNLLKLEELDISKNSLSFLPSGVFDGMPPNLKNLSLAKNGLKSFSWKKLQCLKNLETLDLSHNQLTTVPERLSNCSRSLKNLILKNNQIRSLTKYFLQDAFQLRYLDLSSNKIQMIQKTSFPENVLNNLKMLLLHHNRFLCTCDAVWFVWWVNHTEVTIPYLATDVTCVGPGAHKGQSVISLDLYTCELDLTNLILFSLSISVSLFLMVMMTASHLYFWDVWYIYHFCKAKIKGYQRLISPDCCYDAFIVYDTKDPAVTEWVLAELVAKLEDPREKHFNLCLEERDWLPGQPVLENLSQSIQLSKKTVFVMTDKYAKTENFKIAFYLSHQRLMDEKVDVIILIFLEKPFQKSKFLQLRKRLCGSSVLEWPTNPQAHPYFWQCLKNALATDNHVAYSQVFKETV
Nature of the data set: agonistic activity on hTLR7, HEK-Blue hTLR cells, SEAP reporter (QUANTI-Blue). Type of data set: cell-based. The note with it: HEK-Blue hTLR cells, SEAP reporter, OD650, cultured 1 day; read-out: TLR 7 EC50. Here is the method:
as §1, §2, §3, §4, §5

The nature of data set [1]: cytotoxicity, cell viability by CellTiter-Glo. Type of data set: cell-based, human. The note with it: human, HEK-Blue hTLR cells, cultured 1 day. Here is the method: as §2, §3, §6, §5
In general terms: In ATP-based viability assays light output follows the ATP content of the culture.

Take `CCOCc1nc2c(N)nc3ccccc3c2n1C[C@@H](C)OP(=O)(N[C@@H](C)C(=O)OC(C)C)Oc1cccc2ccccc12` (single isomer, unassigned) [Example 5B]: the concentration for a half-maximal effect (EC50) at hTLR8 worked out at 0.017 µM. In addition, the cytotoxic concentration (CC50) in the data set on HEK-Blue™ hTLR cells was greater than 30 µM.
For the compound `CCOCc1nc2c(N)nc3ccccc3c2n1C[C@@H](C)O[P@](=O)(N[C@@H](C)C(=O)OC(C)C)Oc1ccccc1` (single isomer, unassigned) [Example 3A], the EC50 on hTLR7 was greater than 30 µM. Also, on hTLR8, the EC50 was found to be 9.08 µM and the “TLR 8 selectivity TLR 7/TLR 8” value was greater than 3.3. In addition, the CC50 at 1 day in data set [1] was greater than 30 µM.
Turning to `CCOCc1nc2c(N)nc3ccccc3c2n1C[C@H](C)O[P@](=O)(N[C@@H](C)C(=O)OC(C)C)Oc1ccccc1` (single isomer, unassigned) [Example 3B], the EC50 at hTLR7 came to 3.61 µM; at hTLR8, 1.86 µM. In addition, the “TLR 8 selectivity TLR 7/TLR 8” value at hTLR8 is given as 1.9. The compound also displayed a CC50 at 1 day in data set [1] greater than 30 µM.
The like results for `CCOCc1nc2c(N)nc3ccccc3c2n1C[C@@H](C)O[P@@](=O)(N[C@@H](C)C(=O)OC(C)(C)C)Oc1ccc(C)cc1` (single isomer, unassigned) [Example 17A] were, in that order, greater than 30 µM, 0.133 µM, greater than 226 and greater than 30 µM.
Consider `CCOCc1nc2c(N)nc3ccccc3c2n1C[C@@H](C)O[P@@](=O)(N[C@@H](C)C(=O)OC(C)(C)C)Oc1ccc(Cl)cc1` (single isomer, unassigned) [Example 19A], for which the EC50 at hTLR7 is greater than 30 µM. Further, on hTLR8, the EC50 came to 0.0585 µM and the “TLR 8 selectivity TLR 7/TLR 8” value is listed as greater than 513. Also, in data set [1], the CC50 at 1 day was greater than 30 µM.
Regarding `CCOCc1nc2c(N)nc3ccccc3c2n1C[C@@H](C)O[P@@](=O)(N[C@@H](C)C(=O)OC(C)C)Oc1ccc(Cl)cc1` (single isomer, unassigned) [Example 12A], the concentration for a half-maximal effect (EC50) at hTLR7 was determined as 6.07 µM. In addition, at hTLR8, the EC50 turned out to be 0.0035 µM and the “TLR 8 selectivity TLR 7/TLR 8” value came to 1735. Moreover, the cytotoxic concentration (CC50) at 1 day in data set [1] was greater than 30 µM.

As usually defined, the EC50 is the concentration at which the effect is half-maximal. The CC50 is the concentration giving 50% cytotoxicity. A higher CC50 goes with better tolerance by the cells.
